{"source": "patent US20090215752A1", "about": "“Compounds, preparation and therapeutic use thereof” (priority 2005, published 2009)", "key": {"[1]": {"molecular_target": "T1, PDE2 (Homo sapiens, UniProt O00408)", "T1 construct": "PDE2 was isolated from human platelets, provided by Etablissement Français du Sang-Alsace; tissue Etablissement Français du Sang-Alsace; host or cells: human platelets", "T1 sequence (O00408 whole entry)": "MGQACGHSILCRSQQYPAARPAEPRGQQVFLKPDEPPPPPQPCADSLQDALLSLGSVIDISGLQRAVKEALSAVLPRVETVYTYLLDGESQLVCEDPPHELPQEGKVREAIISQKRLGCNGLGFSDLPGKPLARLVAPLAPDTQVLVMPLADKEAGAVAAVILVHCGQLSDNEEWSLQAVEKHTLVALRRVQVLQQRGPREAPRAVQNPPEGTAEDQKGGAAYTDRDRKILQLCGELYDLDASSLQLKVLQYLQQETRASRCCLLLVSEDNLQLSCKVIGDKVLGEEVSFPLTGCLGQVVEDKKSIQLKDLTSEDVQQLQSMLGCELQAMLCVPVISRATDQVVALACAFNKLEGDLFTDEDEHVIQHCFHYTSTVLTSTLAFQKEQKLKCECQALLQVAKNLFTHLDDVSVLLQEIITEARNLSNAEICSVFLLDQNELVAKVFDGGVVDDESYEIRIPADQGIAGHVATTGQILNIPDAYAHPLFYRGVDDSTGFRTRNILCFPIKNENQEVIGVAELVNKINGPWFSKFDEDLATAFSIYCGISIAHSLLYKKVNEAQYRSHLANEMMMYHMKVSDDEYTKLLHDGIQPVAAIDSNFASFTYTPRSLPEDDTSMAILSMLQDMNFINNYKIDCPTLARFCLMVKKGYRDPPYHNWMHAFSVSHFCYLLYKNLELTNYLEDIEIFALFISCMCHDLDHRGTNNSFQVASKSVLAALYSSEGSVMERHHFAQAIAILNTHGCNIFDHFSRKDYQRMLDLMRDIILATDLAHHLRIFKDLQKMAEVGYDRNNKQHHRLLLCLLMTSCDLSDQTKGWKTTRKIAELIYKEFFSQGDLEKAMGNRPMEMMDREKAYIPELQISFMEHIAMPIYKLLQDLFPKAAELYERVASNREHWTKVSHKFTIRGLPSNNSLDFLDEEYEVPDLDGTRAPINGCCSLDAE", "assay": "Inhibition of PDE2 (radioenzymatic phosphodiesterase assay)", "assay_type": "biochemical", "conditions": "Table 1, 1 μM cyclic AMP", "outline": "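PDE2 isolated from human platelets was assayed radioenzymatically with 1 μM [3H]-cAMP substrate, limiting hydrolysis to ≤15%, in duplicate. Product was converted to nucleoside by nucleotidase, separated by anion exchange and counted by scintillation; IC50 from nonlinear regression of hydrolysis rates.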"}, "[2]": {"system": "σ receptors", "assay": "Isolated organ bioassay, field-stimulated vas deferens: test for agonist activity", "design": "species or system guinea pig", "conditions": "mean, n=2", "description": "Segments of guinea pig vas deferens were suspended in 20-ml organ baths containing an oxygenated (95% O2 and 5% CO2) and pre-warmed (37° C.) physiological salt solution of the following composition (in mM): NaCl 118.0, KCl 4.7, MgSO4 1.2, CaCl2 2.5, KH2PO4 1.2, NaHCO3 25.0 and glucose 11.0 (pH 7.4). Yohimbine (1 μM), (−) sulpiride (1 μM), atropine (1 μM) and naloxone (1 μM) were also present throughout the experiments to block the α2-adrenergic, dopamine D2, muscarinic and opioid receptors, respectively. The tissues were connected to force transducers for isometric tension recordings. They were stretched to a resting tension of 0.5 g, allowed to equilibrate for at least 30 min during which time they were washed repeatedly and the tension readjusted. Thereafter, they were stimulated electrically using a constant current stimulator.\nThe tissues were exposed to a submaximal concentration of the reference agonist (+) SKF-10047 (100 μM) to verify responsiveness and to obtain a control response. Following washings and recovery of the twitch contraction amplitude, the tissues were exposed to increasing concentrations of substance or the same agonist. The different concentrations were added cumulatively and each was left in contact with the tissues until a stable response was obtained or for a maximum of 15 min. If an agonist-like response (enhancement of twitch contractions) was obtained, the reference antagonist rimcazole (10 μM) was tested against the highest concentration of substance to confirm the involvement of the σ receptors in this response.\nThe parameter measured was the maximum change in the twitch contraction amplitude induced by each compound concentration. The results are expressed as a percent variation of the control twitch contraction amplitude (mean values). The effects of substance tested at 1.0 10^−6 M, 3.0 10^−6 M and 1.0 10^−5 M for agonist and antagonist activities at the σ receptors in the guinea pig vas deferens bioassay are summarized in Tables 6-7 where those of the reference compounds are also reported."}}}
{"smiles": "COc1cc2c(c(OC)c1-c1ccccc1)C(c1cccc(C(N)=O)c1)=NCC(=O)N2C", "note": "[Compound 17, 3-(6,8-Dimethoxy-1-methyl-2-oxo-7-phenyl-2,3-dihydro-1H-benzo[e][1,4]diazepin-5-yl)-benzamide]", "values": [{"measurement": "inhibition at 10 µM", "setting": "[1]; 10 μM compound, read-out: PDE2 percentage inhibition at 10 μM", "value": 80, "unit": "%"}, {"measurement": "IC50", "setting": "[1]; value in square brackets, read-out: PDE2 IC50", "value": 800, "unit": "nM"}, {"measurement": "Response to the compound, variation of twitch contraction amplitude", "setting": "[2]; 1.0 10^−5 M", "value": "+33%"}, {"measurement": "Response to the compound, variation of twitch contraction amplitude", "setting": "[2]; 1.0 10^−6 M", "value": 0, "unit": "%"}, {"measurement": "Response to the compound, variation of twitch contraction amplitude", "setting": "[2]; 3.0 10^−6 M", "value": 0, "unit": "%"}, {"measurement": "Response to the highest concentration of the compound +Rimcazole (1.0 10^−5 M)", "setting": "[2]; highest compound concentration plus rimcazole 1.0 10^−5 M", "value": "−9", "unit": "%"}]}
